Measurements as given in ChEMBL document CHEMBL6109155, “Discovery of Phenylacylpiperidine as Novel sEH Inhibitors through Scaffold Hopping of Natural Stilbene” (J Med Chem, 2025).
The source made the active and inactive calls. No cut-off for these calls is given here.

Key:
[1] = biological target: T1, Bifunctional epoxide hydrolase 2 (Mus musculus, UniProt P34914); assay: biochemical
T1 sequence (P34914 whole entry): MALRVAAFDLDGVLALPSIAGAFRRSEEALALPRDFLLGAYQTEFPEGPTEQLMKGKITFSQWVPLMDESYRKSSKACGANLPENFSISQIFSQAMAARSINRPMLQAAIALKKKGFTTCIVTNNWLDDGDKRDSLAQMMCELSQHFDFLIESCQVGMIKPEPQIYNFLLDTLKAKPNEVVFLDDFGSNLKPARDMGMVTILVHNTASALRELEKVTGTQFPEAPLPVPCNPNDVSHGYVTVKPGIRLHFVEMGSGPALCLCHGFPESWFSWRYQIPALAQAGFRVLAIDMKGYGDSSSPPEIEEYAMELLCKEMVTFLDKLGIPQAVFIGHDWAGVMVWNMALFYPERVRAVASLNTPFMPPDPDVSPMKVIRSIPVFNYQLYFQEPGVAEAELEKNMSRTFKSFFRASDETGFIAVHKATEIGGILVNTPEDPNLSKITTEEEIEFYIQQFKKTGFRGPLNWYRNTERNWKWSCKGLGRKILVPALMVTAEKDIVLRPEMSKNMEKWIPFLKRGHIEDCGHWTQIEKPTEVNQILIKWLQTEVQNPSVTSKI
Description: Inhibition of C57BL/6J mouse brain sEH using 14,15-EET as substrate preincubated for 15 mins followed by substrate addition by HPLC-MS analysis

Mus musculus [2] = assay: Anti-inflammatory activity in BALB/c mouse model of carrageenan-induced paw edema at 20 mg/kg, po measured for 0.5 to 6 hrs; format: functional, organism-based; conditions: time 0.5-6 hrs
[3] = Cmax in liver of C57BL/6J mouse at 20 mg/kg, po measured for 24 hrs; format: ADME, organism-based
[4] = AUC (0 to 24 hrs) in liver of C57BL/6J mouse at 20 mg/kg, po measured for 24 hrs; format: ADME, organism-based
[5] = AUC (0 to 24 hrs) in kidney of C57BL/6J mouse at 20 mg/kg, po measured for 24 hrs; format: ADME, organism-based
[6] = AUC (0 to 24 hrs) in brain of C57BL/6J mouse at 20 mg/kg, po measured for 24 hrs; format: ADME, organism-based
[7] = Cmax in plasma of C57BL/6J mouse at 20 mg/kg, po measured for 24 hrs; format: ADME, organism-based
[8] = Cmax in kidney of C57BL/6J mouse at 20 mg/kg, po measured for 24 hrs; format: ADME, organism-based
[9] = Ratio of AUC (0 to 24 hrs) in kidney to plasma in C57BL/6J mouse at 20 mg/kg, po measured for 24 hrs; format: ADME, organism-based; conditions: kidney and plasma, read-out: Ratio AUC
Mus musculus [10] = assay: Anti-inflammatory activity in BALB/c mouse model of carrageenan-induced paw edema assessed as inhibition of paw swelling at 20 mg/kg, po measured for 0.5 hrs relative to control; format: functional
Mus musculus [11] = assay: Anti-inflammatory activity in BALB/c mouse model of carrageenan-induced paw edema assessed as inhibition of paw swelling at 20 mg/kg, po measured for 2 hrs relative to control; format: functional
[12] = Ratio of Cmax in kidney to plasma in C57BL/6J mouse at 20 mg/kg, po measured for 24 hrs; format: ADME, organism-based; conditions: kidney and plasma
[13] = Ratio of Cmax in brain to plasma in C57BL/6J mouse at 20 mg/kg, po measured for 24 hrs; format: ADME, organism-based; conditions: brain and plasma
[14] = Ratio of Cmax in liver to plasma in C57BL/6J mouse at 20 mg/kg, po measured for 24 hrs; format: ADME, organism-based; conditions: liver and plasma
[15] = Ratio of AUC (0 to 24 hrs) in liver to plasma in C57BL/6J mouse at 20 mg/kg, po measured for 24 hrs; format: ADME, organism-based; conditions: liver and plasma, read-out: Ratio AUC
[16] = Cmax in brain of C57BL/6J mouse at 20 mg/kg, po measured for 24 hrs; format: ADME, organism-based
[17] = AUC (0 to 24 hrs) in plasma of C57BL/6J mouse at 20 mg/kg, po measured for 24 hrs; format: ADME, organism-based
Mus musculus [18] = assay: Anti-inflammatory activity in BALB/c mouse model of carrageenan-induced paw edema assessed as inhibition of paw swelling at 20 mg/kg, po measured for 6 hrs relative to control; format: functional
Mus musculus [19] = assay: Analgesic effect in BALB/c mouse model of acetic acid-induced writhing assessed as reduction in number of writhing episodes at 20 mg/kg, po pretreated for 1 hr followed by acetic acid treatment and measured after 5 to 35 mins relative to control; format: functional; set-up: scale not given: the % may be the effect or the level left; conditions: time 65-95 min
[20] = Ratio of AUC (0 to 24 hrs) in brain to plasma in C57BL/6J mouse at 20 mg/kg, po measured for 24 hrs; format: ADME, organism-based; conditions: brain and plasma, read-out: Ratio AUC
Mus musculus [21] = assay: Anti-inflammatory activity in BALB/c mouse model of carrageenan-induced paw edema assessed as inhibition of paw swelling at 20 mg/kg, po measured for 0.5 to 6 hrs relative to control; format: functional; conditions: time 0.5-6 hrs

Row | SMILES | IC50 [1] [nM] | other results
1 | CCC(=O)N1CCC(CNc2c(NC3CCN(C(=O)Cc4cc(OC)cc(OC)c4)CC3)c(=O)c2=O)CC1 | 164000 | 
2 | CC(C)CNC(=O)NC1CCN(CCc2ccc3c(c2)OCO3)CC1 | 1330 | 
3 | O=C(Cc1ccc2c(c1)OCO2)NCCCCNC(=O)NCC1CCOCC1 | 1270 | 
4 | CN(C)C(=O)N1CCC(NC(=O)Cc2ccc3c(c2)OCO3)CC1 | 6390 | 
5 | CCC(=O)N1CCC(CNC(=O)NC2CCN(C(=O)Cc3cccc(NC(=O)Cc4ccccn4)c3)CC2)CC1 | 20.3 | 
6 | CC(C)CNC(=O)NCCCC#Cc1ccc2c(c1)OCO2 | 21.9 | 
7 | CCC(=O)NCCCCNC(=O)NC1CCN(C(=O)Cc2cc(OC)cc(OC)c2)CC1 | 1630 | 
8 | CC(C)CNC(=O)N1CCC(NC(=O)Cc2ccc3c(c2)OCO3)CC1 | 3470 | 
9 | COc1cc(CC(=O)N2CCC(NC(=O)NCCN(C)C)CC2)cc(OC)c1 | 15700 | 
10 | O=C(Cc1ccccn1)Nc1cccc(CC(=O)N2CCC(NC(=O)NCC3CCOCC3)CC2)c1 | 55.3 | 
11 | CC(C)CNC(=O)NC1CCN(C(=O)Cc2ccc3c(c2)OCO3)CC1 | 25.3 | 
12 | CCC(=O)N1CCC(NC(=O)Nc2ccc(OC(F)(F)F)cc2)CC1 |  | inhibition in vivo at 20 mg/kg (Mus musculus [21]; Mus musculus, BALB/c): 28.8%
13 | CCC(=O)N1CCC(CNC(=O)Nc2ccc3c(c2)CNC(c2cc(OC)cc(OC)c2)C3)CC1 (stereo not drawn) | 39.7 | 
14 | CC(C)C(=O)NCCC/C=C/c1ccc2c(c1)OCO2 | 4950 | 
15 | CCC(=O)N1CCC(NC(=O)NC2CCN(C(=O)Cc3cc(OC)cc(OC)c3)CC2)CC1 | 163 | 
16 | CC(C)CNC(=O)NCCNC(=O)Cc1ccc2c(c1)OCO2 | 4310 | 
17 | CC(C)CNC(=O)NCCCCCNC(=O)Cc1ccc2c(c1)OCO2 | 261 | 
18 | CN(C)C(=O)NC1CCN(C(=O)Cc2ccc3c(c2)OCO3)CC1 | 64900 | 
19 | CN(C)C(=O)NCCCC/C=C/c1ccc2c(c1)OCO2 | 6440 | 
20 | CN(C)C(=O)NCCC/C=C/c1ccc2c(c1)OCO2 | 260 | 
21 | CC(C)CNC(=O)NCC1CCN(C(=O)Cc2ccc3c(c2)OCO3)CC1 | 211 | 
22 | CC(C)CNC(=O)NCCCNC(=O)Cc1ccc2c(c1)OCO2 | 4500 | 

Further compounds by falling IC50 [1], results first:

Row | IC50 [1] [nM] | SMILES | other results
23 | 20.2 | COc1ccc(CC(=O)N2CCC(NC(=O)NCC(C)C)CC2)cc1OC | 
24 | 18.8 | CCC(=O)N1CCC(CNC(=O)NC2CCN(C(=O)Cc3cccc(OC(F)(F)F)c3)CC2)CC1 | 
25 | 18.5 | COc1cc(CC(=O)N2CCC(NC(=O)NCC3CCOCC3)CC2)cc(OC)c1 | 
26 | 15.7 | COc1cc(CC(=O)N2CCC(NC(=O)Nc3ccc(OC(F)(F)F)cc3)CC2)cc(OC)c1 | 
27 | 14.6 | COc1cc(CC(=O)N2CCC(NC(=O)NCc3ccc(C#N)cc3)CC2)cc(OC)c1 | 
28 | 11.3 | CC(C)CNC(=O)NCCC/C=C/c1ccc2c(c1)OCO2 | 
29 | 10.9 | COc1cc(CC(=O)N2CCC(NC(=O)NCC(C)C)CC2)cc(OC)c1 | 
30 | 10.8 | CCC(=O)N1CCC(CNC(=O)NC2CCN(C(=O)Cc3cc(OC)cc(OC)c3)CC2)CC1 | Cmax [3]: 5940 ng/g; AUC(0-t) at 24 h [4]: 76700 ng·h/mL; AUC(0-t) at 24 h [5]: 43400 ng·h/mL; AUC(0-t) at 24 h [6]: 173 ng·h/mL; Cmax [7]: 76.7 ng/mL; Cmax [8]: 4010 ng/g; Kp at 24 h [9]: 135; inhibition in vivo at 20 mg/kg (Mus musculus [10]; Mus musculus, BALB/c): 38.6%; inhibition in vivo at 20 mg/kg (Mus musculus [11]): 50.8%; Kp at 24 h [12]: 52.3; Kp at 24 h [13]: 0.59; Kp at 24 h [14]: 77.5; Kp at 24 h [15]: 237; Cmax [16]: 44.9 ng/g; AUC(0-t) at 24 h [17]: 323 ng·h/mL; inhibition in vivo at 20 mg/kg (Mus musculus [18]): 37.6%; Activity (Mus musculus [19]): 60%; Kp at 24 h [20]: 0.53
31 | 10.1 | CCC(=O)N1CCC(CNC(=O)NC2CCN(C(=O)Cc3ccc(OC(F)(F)F)cc3)CC2)CC1 | 
32 | 9.61 | CCC(=O)N1CCC(CNC(=O)NC2CCN(C(=O)Cc3ccc4c(c3)OCO4)CC2)CC1 | 
33 | 6.13 | CCC(=O)N1CCC(CNC(=O)NC2CCN(C(=O)Cc3cccc(OC)c3)CC2)CC1 | 
34 | 5.24 | CCC(=O)N1CCC(CNC(=O)Nc2ccc3cc(-c4cc(OC)cc(OC)c4)ncc3c2)CC1 | 
35 | 4.34 | COc1cc(OC)cc(C2Cc3ccc(NC(=O)NCc4ccc(OC(F)(F)F)cc4)cc3CN2)c1 (stereo not drawn) | 
36 | 4.23 | COc1ccc(CC(=O)N2CCC(NC(=O)NCc3ccc(OC(F)(F)F)cc3)CC2)cc1OC | 
37 | 3.77 | CS(=O)(=O)c1ccc(CC(=O)N2CCC(NC(=O)NCc3ccc(OC(F)(F)F)cc3)CC2)cc1 | Imax (Mus musculus [10]): 35.9%
38 | 3.1 | O=C(Cc1ccccn1)Nc1cccc(CC(=O)N2CCC(NC(=O)NCc3ccc(OC(F)(F)F)cc3)CC2)c1 | 
39 | 2.25 | COc1cc(OC)cc(C(=O)N2CCC(NC(=O)NCc3ccc(OC(F)(F)F)cc3)CC2)c1 | 
40 | 2.24 | O=C(NCc1ccc(OC(F)(F)F)cc1)NC1CCN(C(=O)Cc2ccc(OC(F)(F)F)cc2)CC1 | 
41 | 1.95 | COc1cc(OC)cc(-c2cc3ccc(NC(=O)NCc4ccc(OC(F)(F)F)cc4)cc3cn2)c1 | Imax (Mus musculus [21]): 12.7%
42 | 1.88 | CC(C)CNC(=O)NCCCCNC(=O)Cc1ccc2c(c1)OCO2 | 
43 | 0.91 | O=C(NCc1ccc(OC(F)(F)F)cc1)NC1CCN(C(=O)Cc2cccc(OC(F)(F)F)c2)CC1 | Imax (Mus musculus [10]): 39.7%; Activity (Mus musculus [2]): Active
44 | 0.85 | O=C(NCc1ccc(OC(F)(F)F)cc1)NC1CCN(C(=O)Cc2ccc3c(c2)OCO3)CC1 | Imax (Mus musculus [10]): 36.3%; Activity (Mus musculus [2]): Active
45 | 0.73 | COc1cc(CCC(=O)N2CCC(NC(=O)NCc3ccc(OC(F)(F)F)cc3)CC2)cc(OC)c1 | Imax (Mus musculus [10]): 28.3%; Activity (Mus musculus [2]): Active
46 | 0.54 | COc1cccc(CC(=O)N2CCC(NC(=O)NCc3ccc(OC(F)(F)F)cc3)CC2)c1 | Activity (Mus musculus [2]): Active
